According to the NIST ThermoML archive (doi:10.1016/j.jct.2012.08.030):
Numbers after ± are expanded uncertainties.

Key:
[1] = 101.3 kPa, Liquid; for speed of sound: Sing-around technique in a fixed-path interferometer; for mass density: Vibrating tube method
[2] = refractive index (Na D-line) (dimensionless); settings: 101.33 kPa, Liquid, Standard Abbe refractometry
[3] = xn = mol fraction of the nth substance listed; settings: 101.3 kPa, Liquid, x2 = 0; for speed of sound: Sing-around technique in a fixed-path interferometer; for mass density: Vibrating tube method
[4] = refractive index (Na D-line) (dimensionless); xn = mol fraction of the nth substance listed; settings: 101.3 kPa, Liquid, Standard Abbe refractometry, x2 = 0

Compound	speed of sound ([1]; 298.15 K)	mass density ([1]; 298.15 K)	speed of sound ([1]; 303.15 K)	mass density ([1]; 303.15 K)	speed of sound ([1]; 308.15 K)	mass density ([1]; 308.15 K)	speed of sound ([1]; 313.15 K)	mass density ([1]; 313.15 K)	refractive index ([2]; 298.15 K)	refractive index ([2]; 303.15 K)	refractive index ([2]; 308.15 K)	refractive index ([2]; 313.15 K)	speed of sound ([3]; 298.15 K)	mass density ([3]; 298.15 K)	speed of sound ([3]; 303.15 K)	mass density ([3]; 303.15 K)	speed of sound ([3]; 308.15 K)	mass density ([3]; 308.15 K)	speed of sound ([3]; 313.15 K)	mass density ([3]; 313.15 K)	other results
CCCCn1cc[n+](C)c1.COS(=O)(=O)[O-] [1-butyl-3-methylimidazolium methyl sulfate]	1654.6 ± 3.1 m/s	1212.06 ± 2.8 kg/m3	1642.2 ± 3.1 m/s	1208.7 ± 2.8 kg/m3	1630 ± 3.1 m/s	1205.35 ± 2.8 kg/m3	1617.9 ± 3.1 m/s	1202.01 ± 2.8 kg/m3	1.47824 ± 0.00068	1.47704 ± 0.00068	1.47577 ± 0.00068	1.47443 ± 0.00068	–	–	–	–	–	–	–	–	–
CCCCO [butan-1-ol]	1239.3 ± 1.2 m/s	805.93 ± 0.24 kg/m3	1222.9 ± 1.2 m/s	802.088 ± 0.24 kg/m3	1206.3 ± 1.2 m/s	798.214 ± 0.24 kg/m3	1189.7 ± 1.2 m/s	794.301 ± 0.24 kg/m3	1.39747 ± 0.00037	1.39549 ± 0.00037	1.39342 ± 0.00037	1.39138 ± 0.00037	–	–	–	–	–	–	–	–	–
CCCCO [butan-1-ol] + CCCCn1cc[n+](C)c1.COS(=O)(=O)[O-]	–	–	–	–	–	–	–	–	–	–	–	–	1239.3 ± 1.2 m/s	805.93 ± 0.24 kg/m3	1222.9 ± 1.2 m/s	802.088 ± 0.24 kg/m3	1206.3 ± 1.2 m/s	798.214 ± 0.24 kg/m3	1189.7 ± 1.2 m/s	794.301 ± 0.24 kg/m3	refractive index ([4]; 298.15 K): 1.39747 ± 0.00037; refractive index ([4]; 303.15 K): 1.39549 ± 0.00037; refractive index ([4]; 308.15 K): 1.39342 ± 0.00037; refractive index ([4]; 313.15 K): 1.39138 ± 0.00037
CO [methanol]	1104.3 ± 0.59 m/s	787.405 ± 0.12 kg/m3	1088.3 ± 0.59 m/s	782.688 ± 0.12 kg/m3	1072 ± 0.58 m/s	777.941 ± 0.12 kg/m3	1055.9 ± 0.58 m/s	773.168 ± 0.12 kg/m3	1.3272 ± 0.00031	1.32552 ± 0.00031	1.32362 ± 0.00031	1.32171 ± 0.00031	–	–	–	–	–	–	–	–	–
CO [methanol] + CCCCn1cc[n+](C)c1.COS(=O)(=O)[O-]	–	–	–	–	–	–	–	–	–	–	–	–	1104.3 ± 0.59 m/s	787.405 ± 0.12 kg/m3	1088.3 ± 0.59 m/s	782.688 ± 0.12 kg/m3	1072 ± 0.58 m/s	777.941 ± 0.12 kg/m3	1055.9 ± 0.58 m/s	773.168 ± 0.12 kg/m3	refractive index ([4]; 298.15 K): 1.3272 ± 0.00031; refractive index ([4]; 303.15 K): 1.32552 ± 0.00031; refractive index ([4]; 308.15 K): 1.32362 ± 0.00031; refractive index ([4]; 313.15 K): 1.32171 ± 0.00031
CCCO [propan-1-ol]	1205.9 ± 0.8 m/s	800.008 ± 0.14 kg/m3	1189.3 ± 0.8 m/s	795.97 ± 0.14 kg/m3	1172.4 ± 0.79 m/s	791.892 ± 0.14 kg/m3	1155.5 ± 0.79 m/s	787.772 ± 0.14 kg/m3	1.38334 ± 0.00033	1.38131 ± 0.00033	1.37926 ± 0.00033	1.37722 ± 0.00033	–	–	–	–	–	–	–	–	–
CCCO [propan-1-ol] + CCCCn1cc[n+](C)c1.COS(=O)(=O)[O-]	–	–	–	–	–	–	–	–	–	–	–	–	1205.9 ± 0.8 m/s	800.008 ± 0.14 kg/m3	1189.3 ± 0.8 m/s	795.97 ± 0.14 kg/m3	1172.4 ± 0.79 m/s	791.892 ± 0.14 kg/m3	1155.5 ± 0.79 m/s	787.772 ± 0.14 kg/m3	refractive index ([4]; 298.15 K): 1.38334 ± 0.00033; refractive index ([4]; 303.15 K): 1.38131 ± 0.00033; refractive index ([4]; 308.15 K): 1.37926 ± 0.00033; refractive index ([4]; 313.15 K): 1.37722 ± 0.00033
CC(C)O [propan-2-ol]	1138.7 ± 0.78 m/s	781.123 ± 0.15 kg/m3	1121.4 ± 0.78 m/s	776.845 ± 0.15 kg/m3	1103.9 ± 0.77 m/s	772.487 ± 0.15 kg/m3	1086.6 ± 0.77 m/s	768.053 ± 0.15 kg/m3	1.37527 ± 0.00033	1.37314 ± 0.00033	1.37093 ± 0.00033	1.3687 ± 0.00033	–	–	–	–	–	–	–	–	–
CC(C)O [propan-2-ol] + CCCCn1cc[n+](C)c1.COS(=O)(=O)[O-]	–	–	–	–	–	–	–	–	–	–	–	–	1138.7 ± 0.78 m/s	781.123 ± 0.15 kg/m3	1121.4 ± 0.78 m/s	776.845 ± 0.15 kg/m3	1103.9 ± 0.77 m/s	772.487 ± 0.15 kg/m3	1086.6 ± 0.77 m/s	768.053 ± 0.15 kg/m3	refractive index ([4]; 298.15 K): 1.37527 ± 0.00033; refractive index ([4]; 303.15 K): 1.37314 ± 0.00033; refractive index ([4]; 308.15 K): 1.37093 ± 0.00033; refractive index ([4]; 313.15 K): 1.3687 ± 0.00033
